{"source": "paper PMC6934184", "about": "“Selective DNA-PKcs inhibition extends the therapeutic index of localized radiotherapy and chemotherapy” (The Journal of Clinical Investigation, 2019)", "target": "T1, ALK F1174L (Homo sapiens, UniProt Q9UM73, F1174L)", "T1 construct": "purchased Thermo Fisher Scientific (Life Technologies) SelectScreen", "T1 sequence (Q9UM73 19-1620 F1174L)": "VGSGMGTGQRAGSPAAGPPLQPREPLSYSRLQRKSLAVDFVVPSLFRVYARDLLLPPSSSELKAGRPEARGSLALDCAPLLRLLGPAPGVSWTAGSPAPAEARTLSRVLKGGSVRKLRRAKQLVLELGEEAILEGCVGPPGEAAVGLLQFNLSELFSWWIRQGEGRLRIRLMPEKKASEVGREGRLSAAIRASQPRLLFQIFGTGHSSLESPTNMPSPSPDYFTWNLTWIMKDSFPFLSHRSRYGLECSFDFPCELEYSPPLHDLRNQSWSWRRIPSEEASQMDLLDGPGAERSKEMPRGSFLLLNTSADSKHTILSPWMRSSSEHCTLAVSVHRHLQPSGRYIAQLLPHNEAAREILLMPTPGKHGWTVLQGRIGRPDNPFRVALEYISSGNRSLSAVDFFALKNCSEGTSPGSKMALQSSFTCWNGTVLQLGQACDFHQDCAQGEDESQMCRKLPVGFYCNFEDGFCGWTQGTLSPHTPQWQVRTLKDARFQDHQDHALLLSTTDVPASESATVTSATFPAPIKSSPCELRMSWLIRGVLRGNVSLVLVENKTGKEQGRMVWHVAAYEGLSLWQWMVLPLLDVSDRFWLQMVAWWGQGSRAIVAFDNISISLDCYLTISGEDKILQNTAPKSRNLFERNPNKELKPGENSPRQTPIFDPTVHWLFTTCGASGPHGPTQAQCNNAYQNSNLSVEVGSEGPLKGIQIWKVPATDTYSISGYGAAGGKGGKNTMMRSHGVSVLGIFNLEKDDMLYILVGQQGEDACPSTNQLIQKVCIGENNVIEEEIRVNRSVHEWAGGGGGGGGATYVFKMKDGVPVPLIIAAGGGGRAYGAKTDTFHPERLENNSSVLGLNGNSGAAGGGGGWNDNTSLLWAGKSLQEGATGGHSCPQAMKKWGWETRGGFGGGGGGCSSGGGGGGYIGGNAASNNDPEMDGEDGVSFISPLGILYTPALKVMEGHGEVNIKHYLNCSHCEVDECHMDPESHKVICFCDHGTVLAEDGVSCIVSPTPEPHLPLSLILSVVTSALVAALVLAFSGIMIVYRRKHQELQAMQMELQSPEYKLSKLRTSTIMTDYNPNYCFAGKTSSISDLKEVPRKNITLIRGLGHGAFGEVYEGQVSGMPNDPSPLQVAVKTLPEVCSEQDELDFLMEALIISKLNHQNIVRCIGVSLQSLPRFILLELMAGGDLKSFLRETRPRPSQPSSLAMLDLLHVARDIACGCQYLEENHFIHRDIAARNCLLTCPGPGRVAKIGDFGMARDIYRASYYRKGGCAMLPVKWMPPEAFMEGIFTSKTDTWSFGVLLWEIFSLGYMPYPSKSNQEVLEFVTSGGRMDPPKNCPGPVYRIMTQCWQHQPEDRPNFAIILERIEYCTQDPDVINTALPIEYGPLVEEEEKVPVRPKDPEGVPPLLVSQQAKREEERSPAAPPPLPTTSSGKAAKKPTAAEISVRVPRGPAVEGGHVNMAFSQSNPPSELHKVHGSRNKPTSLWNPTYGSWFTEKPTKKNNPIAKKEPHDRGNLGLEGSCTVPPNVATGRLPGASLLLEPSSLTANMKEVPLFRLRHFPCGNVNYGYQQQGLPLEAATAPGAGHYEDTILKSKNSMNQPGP", "experiment": "SelectScreen LanthaScreen", "assay_type": "binding", "details": "read-out: % displacement", "summary_of_the_method": "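NU5455 was profiled across the SelectScreen Broad panel of kinase activity and binding assays. Z'LYTE reactions such as CSF1R ran at apparent Km ATP, while the Adapta CAMK1 assay used ATP listed as 10. Values are given as percent.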"}
{"smiles": "CN(C(=O)CN1CCOCC1)c1ccc2sc3c(-c4cccc5c(=O)cc(N6CC7CCC(C6)O7)oc45)cccc3c2c1", "note": "[NU5455]", "values": [{"measurement": "inhibition at 1 µM", "result": 1.6, "unit": "%"}]}
